The values below are quoted from earlier work in patent US20240398684A1, “HIGH UV PROTECTION CLEANSING COMPOSITION” (Conopco, Inc., d/b/a UNILEVER, priority 2020, published 2024).

For this data set the following is noted: Reference: Photochem. Photobiol. Sci., 2010,9, 464-469.
On to `O=S(=O)([O-])c1cc(S(=O)(=O)O)cc2[nH]c(-c3ccc(-c4nc5c(S(=O)(=O)[O-])cc(S(=O)(=O)O)cc5[nH]4)cc3)nc12.[Na+].[Na+]` [BD, Di sodium phenyl dibenzimidazole tetra sulfonate], for which the absorption maxima was 335 nm.
Turning to `O=S(=O)(O)c1ccc2[nH]c(-c3ccccc3)nc2c1` [PBSA, Phenyl benzimidazole sulphonic acid], the absorption maxima is reported as 302 nm.
In the case of `CC1(C)C2CCC1(CS(=O)(=O)O)C(=O)C2=Cc1ccc(C=C2C(=O)C3(CS(=O)(=O)O)CCC2C3(C)C)cc1` [TDSA, Terephthalylidene dicamphor sulfonic acid], the absorption maxima is on record as 345 nm.
